Data reported in patent US6340694B1, “Diarylbenzopyran derivatives as cyclooxygenase-2 inhibitors” (Pacific Corporation, priority 1998, dated 2002).

Assays:
[1] = biological target: T1, COX-2 (Mus musculus, UniProt Q05769); test: Evaluation of COX-2's inhibition efficacy (PGE2 radioimmuno assay, LPS-induced, aspirin-pretreated peritoneal macrophages); format: cell-based, C57BL/6 mouse
T1 construct: endogenous in cells; host or cells: peritoneal macrophages of C57BL/6 mouse, aspirin-pretreated, LPS-induced
T1 sequence (Q05769 18-604): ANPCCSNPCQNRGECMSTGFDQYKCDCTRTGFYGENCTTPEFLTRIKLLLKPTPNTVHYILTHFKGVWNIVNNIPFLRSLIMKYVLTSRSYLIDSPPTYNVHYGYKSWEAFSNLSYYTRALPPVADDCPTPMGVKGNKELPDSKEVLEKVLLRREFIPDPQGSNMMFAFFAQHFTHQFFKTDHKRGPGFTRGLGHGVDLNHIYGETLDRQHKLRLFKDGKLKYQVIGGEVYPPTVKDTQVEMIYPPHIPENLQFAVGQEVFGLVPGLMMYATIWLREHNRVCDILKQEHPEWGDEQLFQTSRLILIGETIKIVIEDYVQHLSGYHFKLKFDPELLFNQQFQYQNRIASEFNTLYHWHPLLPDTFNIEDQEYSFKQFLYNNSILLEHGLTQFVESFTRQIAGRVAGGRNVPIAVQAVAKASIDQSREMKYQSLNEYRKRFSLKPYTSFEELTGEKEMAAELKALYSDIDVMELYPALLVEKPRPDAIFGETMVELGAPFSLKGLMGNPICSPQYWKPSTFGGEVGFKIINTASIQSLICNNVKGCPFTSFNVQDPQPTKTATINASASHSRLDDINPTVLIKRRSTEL
Procedure, shortened: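 C57BL/6 mouse peritoneal macrophages, adhered 2 h at 37 °C, were LPS-stimulated to induce COX-2. Cells were then treated 10 min with compound, followed by 10 min with 10 μM arachidonic acid (final). PGE2 in the supernatant was quantified by radioimmunoassay.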

[2] = system: edema in mouse's ear; test: Depressant action on edema in mouse's ear (TPA-induced, myeloperoxidase); format: in vivo, ICR mouse; settings: topical on ear, TPA 25 μg, 5 hours
Protocol: (§1) Regarding the compounds in some of the above Examples and indomethacin, depressant action on edema in mouse's ear and depressant action on edema in mouse's foot being induced by carrageenan are being measured by the following 2 methods. And the results of the depressant action on edema in mouse's ear and depressant action on edema in mouse's foot being induced by carrageenan are shown in Table 5.
1. Measurement of Depressant Action on Edama in Mouse's Ear
At 30 minutes after coating the left ear of ICR mouse, weighing 20 g, with a solution of appropriate amount of sample in 20 μl of mixed solvent DMSO:acetone(1:9), 25 μg of TPA(tetradecanoylphorbol acetate) was coated on both ears. The determination of depressant action on edama was made in 5 hours later by the number of neutral granulocyte gathering in the ear after inducing TPA inflammation. The number of neutral granulocyte was estimated by measuring the activation of myeloperoxidase.

[3] = system: edema in mouse's foot induced by carrageenan; test: Depressant action on edema in mouse's foot induced by carrageenan; format: in vivo, Male Sprague-Dawley rat; settings: po, 3 h, 50 mg/kg p.o., read-out: depressant rate of edema rate induced by carrageenan (oral administration), % depression
Protocol: as §1
2. Measurement of Depressant Action on Edama in Mouse's Foot Induced by Carrageenan
At 1 hour after oral administering to Male-Sprague-Dawley-white mouse, weighing 150˜200 g, with a suspended solution of appropriate amount of sample in 0.5% of carboxymethyl cellulose and 0.2% of TWEN solution, edema on the right foot of mouse was induced by injecting 0.1 ml(1%) of carrageenan-saline solution. Right after the inducement of edema by carrageenan and 3 hours later, the edema rate was estimated by measuring white mouse's foot volume with Displacement Plethysmometer(Ugo Basile, Italy). Carrageenan injection Drug was administered 1 hour before the carrageenan injection. Depressant rate of edema is produced by the following equation 1.
% Depressant rate of edema=(1 ? Vtreated group/ ? Vcontrol group)×100 ? V: change of foot volume [Equation 1]

Cc1ccc(-c2c(-c3ccc(S(C)(=O)=O)cc3)oc3ccccc3c2=O)cc1 [Example 3, 3-(4-Methylphenyl)-2-(4-(methylsulfonyl)phenyl)-4H-1-benzopyran-4-one]
melting point: 225 °C | inhibition at 0.1 µg/mL ([1]; 0.1 μg/ml): 13% | inhibition at 1 µg/mL ([1]; 1 μg/ml): 61% | inhibition at 10 µg/mL ([1]; 10 μg/ml): 72% | depressant rate of ear edema, ED50 [2]: 1.2 mg/ear, ED50 | inhibition in vivo at 50 mg/kg [3]: 52%
